Assay results published in patent publication US20230219904A1 (SYNGENTA CROP PROTECTION AG, priority 2020, published 2023).

Tests used:
Format in all cases: in vivo
Settings in all cases: evaluated after 13 days
[1] = tested on: Abutilon theophrasti (ABUTH); experiment: Pre-emergence herbicidal glasshouse test (Table B1)
Experimental: (§1) Seeds of a variety of test species are sown in standard soil in pots (Lolium perenne (LOLPE), Amaranthus retoflexus (AMARE), Abutilon theophrasti (ABUTH), Setaria faberi (SETFA), Echinochloa crus-galh (ECHCG), Ipomoea hederacea (IPOHE)). After cultivation for one day (pre-emergence) or after 8 days cultivation (post-emergence) under controlled conditions in a glasshouse (at 24/16° C., day/night; 14 hours light; 65% humidity), the plants are sprayed with an aqueous spray solution derived from the formulation of the technical active ingredient in acetone/water (50:50) solution containing 0.5% Tween 20 (polyoxyethelyene sorbitan monolaurate, CAS RN 9005-64-5). Compounds are applied at 500 g/h unless otherwise indicated. The test plants are then grown in a glasshouse under controlled conditions in a glasshouse (at 24/16° C., day/night; 14 hours light; 65% humidity) and watered twice daily. After 13 days for pre and post-emergence, the test is evaluated for the percentage damage caused to the plant. The biological activities are shown in the following table on a five-point scale (5=80-100%; 4=60-79%; 3=40-59%; 2=20-39%; 1=0-19%).

[2] = tested on: Amaranthus retoflexus (AMARE); experiment: as above
Experimental: as §1

[3] = tested on: Echinochloa crus-galh (ECHCG); experiment: as above
Experimental: as §1

[4] = tested on: Ipomoea hederacea (IPOHE); experiment: as above
Experimental: as §1

Setaria faberi (SETFA) [5] = experiment: as above
Experimental: as §1

[6] = tested on: Amaranthus retoflexus (AMARE); experiment: Post-emergence herbicidal glasshouse test (Table B1)
Experimental: as §1

[7] = tested on: Echinochloa crus-galh (ECHCG); experiment: as above
Experimental: as §1

[8] = tested on: Ipomoea hederacea (IPOHE); experiment: as above
Experimental: as §1

Setaria faberi (SETFA) [9] = experiment: as above
Experimental: as §1

Row | Structure (SMILES) | PRE Application ABUTH, percentage damage on five-point scale ([1]; applied at 125 g/ha) | PRE Application AMARE, percentage damage on five-point scale ([2]; applied at 125 g/ha) | PRE Application ECHCG, percentage damage on five-point scale ([3]; applied at 125 g/ha) | PRE Application IPOHE, percentage damage on five-point scale ([4]; applied at 125 g/ha) | PRE Application SETFA, percentage damage on five-point scale (Setaria faberi (SETFA) [5]; applied at 125 g/ha) | POST Application AMARE, percentage damage on five-point scale ([6]; applied at 125 g/ha) | POST Application ECHCG, percentage damage on five-point scale ([7]; applied at 125 g/ha) | POST Application IPOHE, percentage damage on five-point scale ([8]; applied at 125 g/ha) | POST Application SETFA, percentage damage on five-point scale (Setaria faberi (SETFA) [9]; applied at 125 g/ha) | PRE Application ABUTH, percentage damage on five-point scale ([1]; applied at 500 g/h) | PRE Application AMARE, percentage damage on five-point scale ([2]; applied at 500 g/h) | PRE Application ECHCG, percentage damage on five-point scale ([3]; applied at 500 g/h) | PRE Application IPOHE, percentage damage on five-point scale ([4]; applied) | PRE Application SETFA, percentage damage on five-point scale (Setaria faberi (SETFA) [5]; applied at 500 g/h) | POST Application AMARE, percentage damage on five-point scale ([6]; applied at 500 g/h) | POST Application ECHCG, percentage damage on five-point scale ([7]; applied at 500 g/h) | POST Application IPOHE, percentage damage on five-point scale ([8]; applied at 500 g/h) | POST Application SETFA, percentage damage on five-point scale (Setaria faberi (SETFA) [9]; applied at 500 g/h)
1 | CCC(COC)C(=O)Nc1c(OC(F)(F)F)ccc(C(=O)Nc2nnnn2CC)c1Cl (stereo not drawn) [Compound 1.069] | 5 (5=80-100%) | 5 (5=80-100%) | 5 (5=80-100%) | 4 (4=60-79%) | 5 (5=80-100%) | 4 (4=60-79%) | 5 (5=80-100%) | 4 (4=60-79%) | 5 (5=80-100%) | – | – | – | – | – | – | – | – | –
2 | CCCOCC(=O)Nc1c(OC(F)(F)F)ccc(C(=O)Nc2nnnn2CC)c1Cl [Compound 1.070] | 5 (5=80-100%) | 5 (5=80-100%) | 4 (4=60-79%) | 4 (4=60-79%) | 4 (4=60-79%) | 4 (4=60-79%) | 4 (4=60-79%) | 4 (4=60-79%) | 4 (4=60-79%) | – | – | – | – | – | – | – | – | –
3 | CCn1nnnc1NC(=O)c1ccc(OC(F)(F)F)c(NC(=O)C(C)OC)c1Cl (stereo not drawn) [Compound 1.071] | 5 (5=80-100%) | 5 (5=80-100%) | 5 (5=80-100%) | 5 (5=80-100%) | 5 (5=80-100%) | 4 (4=60-79%) | 5 (5=80-100%) | 4 (4=60-79%) | 5 (5=80-100%) | – | – | – | – | – | – | – | – | –
4 | CCn1nnnc1NC(=O)c1ccc(OC(F)(F)F)c(NC(=O)COC(C)C)c1Cl [Compound 1.072] | 5 (5=80-100%) | 5 (5=80-100%) | 5 (5=80-100%) | 5 (5=80-100%) | 4 (4=60-79%) | 4 (4=60-79%) | 5 (5=80-100%) | 4 (4=60-79%) | 5 (5=80-100%) | – | – | – | – | – | – | – | – | –
5 | CCOC(C)C(=O)Nc1c(OC(F)(F)F)ccc(C(=O)Nc2nnnn2CC)c1Cl (stereo not drawn) [Compound 1.073] | 5 (5=80-100%) | 5 (5=80-100%) | 5 (5=80-100%) | 5 (5=80-100%) | 5 (5=80-100%) | 5 (5=80-100%) | 5 (5=80-100%) | 4 (4=60-79%) | 5 (5=80-100%) | – | – | – | – | – | – | – | – | –
6 | CCOCC(=O)Nc1c(OC(F)(F)F)ccc(C(=O)Nc2nnnn2CC)c1Cl [Compound 1.074] | 5 (5=80-100%) | 5 (5=80-100%) | 4 (4=60-79%) | 5 (5=80-100%) | 4 (4=60-79%) | 5 (5=80-100%) | 5 (5=80-100%) | 5 (5=80-100%) | 5 (5=80-100%) | – | – | – | – | – | – | – | – | –
7 | CCn1nnnc1NC(=O)c1ccc(OC(F)(F)F)c(NC(=O)C2(C)CC2)c1Cl [Compound 1.075] | 5 (5=80-100%) | 5 (5=80-100%) | 5 (5=80-100%) | 5 (5=80-100%) | 5 (5=80-100%) | 4 (4=60-79%) | 4 (4=60-79%) | 4 (4=60-79%) | 5 (5=80-100%) | – | – | – | – | – | – | – | – | –
8 | CCC(C)C(=O)Nc1c(OC(F)(F)F)ccc(C(=O)Nc2nnnn2CC)c1Cl (stereo not drawn) [Compound 1.076] | 5 (5=80-100%) | 5 (5=80-100%) | 5 (5=80-100%) | 5 (5=80-100%) | 5 (5=80-100%) | 4 (4=60-79%) | 5 (5=80-100%) | 4 (4=60-79%) | 4 (4=60-79%) | – | – | – | – | – | – | – | – | –
9 | CCOCCC(=O)Nc1c(OC(F)(F)F)ccc(C(=O)Nc2nnnn2CC)c1Cl [Compound 1.077] | 5 (5=80-100%) | 5 (5=80-100%) | 5 (5=80-100%) | 5 (5=80-100%) | 3 (3=40-59%) | 5 (5=80-100%) | 5 (5=80-100%) | 4 (4=60-79%) | 5 (5=80-100%) | – | – | – | – | – | – | – | – | –
10 | CCC(=O)Nc1c(OC(F)(F)F)ccc(C(=O)Nc2nnnn2C)c1C [Compound 1.078] | 5 (5=80-100%) | 5 (5=80-100%) | 5 (5=80-100%) | 4 (4=60-79%) | 4 (4=60-79%) | 5 (5=80-100%) | 5 (5=80-100%) | 4 (4=60-79%) | 5 (5=80-100%) | – | – | – | – | – | – | – | – | –
11 | CCC(=O)Nc1c(OC(F)(F)F)ccc(C(=O)Nc2nnnn2CC)c1C [Compound 1.079] | 5 (5=80-100%) | 5 (5=80-100%) | 5 (5=80-100%) | 4 (4=60-79%) | 4 (4=60-79%) | 4 (4=60-79%) | 5 (5=80-100%) | 4 (4=60-79%) | 4 (4=60-79%) | – | – | – | – | – | – | – | – | –
12 | Cn1nnnc1NC(=O)c1ccc(OC(F)F)c(NC(=O)c2ncc(C(F)(F)F)cc2Cl)c1Cl [Compound 1.081] | 5 (5=80-100%) | 5 (5=80-100%) | 1 (1=0-19%) | 1 (1=0-19%) | 1 (1=0-19%) | 4 (4=60-79%) | 3 (3=40-59%) | 4 (4=60-79%) | 3 (3=40-59%) | – | – | – | – | – | – | – | – | –
13 | CCC(=O)N(CC)c1c(OC(F)F)ccc(C(=O)Nc2nnnn2C)c1C(F)(F)F [Compound 1.091] | 5 (5=80-100%) | 5 (5=80-100%) | 5 (5=80-100%) | 3 (3=40-59%) | 4 (4=60-79%) | 4 (4=60-79%) | 5 (5=80-100%) | 3 (3=40-59%) | 4 (4=60-79%) | – | – | – | – | – | – | – | – | –
14 | CCn1nnnc1NC(=O)c1ccc(OC(F)(F)F)c(NC(=O)c2ncccc2F)c1Cl [Compound 1.094] | – | – | – | – | – | – | – | – | – | 1 (1=0-19%) | 5 (5=80-100%) | 1 (1=0-19%) | 1 (1=0-19%) | 1 (1=0-19%) | 5 (5=80-100%) | 5 (5=80-100%) | 5 (5=80-100%) | 5 (5=80-100%)
